# Measured values as given in PubChem BioAssay AID1645863 (Buhrlage Lab, Dana-Farber Cancer Institute and Novartis …, 2021).
# pIC50: −log10 of the molar value. Calls of active or inactive are those of the source. The rule behind the calls is not given here. Where a SMILES comes first, the peptide text is derived from it. Bridges are numbered along the chain shown (N, C = ends). The star is where a group is joined. ξ: configuration not given here. Pentadecanoyl(3ξ-OH,15-Gua) = N=C(N)NCCCCCCCCCCCCC(O)CC(=O)*
# Target: Ubiquitin carboxyl-terminal hydrolase 10 (Homo sapiens) (UniProt Q14694)
# Sequence (Q14694 whole entry, looked up): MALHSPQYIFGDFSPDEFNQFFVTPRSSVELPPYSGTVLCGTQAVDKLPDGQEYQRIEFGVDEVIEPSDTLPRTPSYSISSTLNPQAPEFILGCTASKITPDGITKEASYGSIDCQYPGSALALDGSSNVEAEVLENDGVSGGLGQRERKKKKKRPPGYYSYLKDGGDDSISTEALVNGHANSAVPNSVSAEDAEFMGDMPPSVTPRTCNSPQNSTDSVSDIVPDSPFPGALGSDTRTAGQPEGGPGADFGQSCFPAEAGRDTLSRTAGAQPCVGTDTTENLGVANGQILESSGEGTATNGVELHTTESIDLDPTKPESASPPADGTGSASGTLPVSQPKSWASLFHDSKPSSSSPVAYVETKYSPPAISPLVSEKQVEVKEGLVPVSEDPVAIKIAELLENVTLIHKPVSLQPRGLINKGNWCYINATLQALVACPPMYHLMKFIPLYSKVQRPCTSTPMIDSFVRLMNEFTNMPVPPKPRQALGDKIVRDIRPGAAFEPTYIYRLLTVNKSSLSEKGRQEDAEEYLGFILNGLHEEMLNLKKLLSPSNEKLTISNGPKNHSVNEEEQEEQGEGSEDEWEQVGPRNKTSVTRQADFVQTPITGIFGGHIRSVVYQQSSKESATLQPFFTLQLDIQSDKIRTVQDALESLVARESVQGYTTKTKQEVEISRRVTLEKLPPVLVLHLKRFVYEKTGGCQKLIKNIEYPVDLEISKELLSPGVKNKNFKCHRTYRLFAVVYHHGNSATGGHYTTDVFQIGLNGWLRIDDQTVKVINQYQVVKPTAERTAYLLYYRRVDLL
# Assay: primary hit verification, biochemical, ubiquitin-specific protease 10 deubiquitylase inhibitors, concentration-effect titration (AID 1645863);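 note: potency values describe inhibition of USP10 cleavage of a fluorogenic ubiquitin substrate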
# Conditions: USP10 deubiquitinase enzymatic assay
SMILES,IC50,pIC50
O=S(=O)(c1ccccc1Cl)N1CCN(c2ccc3nnc(-c4ccco4)n3n2)CC1,> 40 µM (inactive),
COc1ccc2nc(N3CC(C(=O)Nc4ccc(C(N)=O)cc4)C3)sc2c1,> 40 µM (inactive),
CCOc1ccccc1NC(=O)Cn1c(=O)n(CCCC(=O)NCc2ccc(C)cc2)c(=O)c2sccc21,> 40 µM (inactive),
Cc1cccn2c(=O)c3cc(C#N)c(=O)n(-c4cccc(C(F)(F)F)c4)c3nc12,> 40 µM (inactive),
COc1ccc(-c2cc3nc([C@H](C)NC(=O)CC4CCCC4)nn3cn2)cc1,> 40 µM (inactive),
COc1ccccc1CNC(=O)CCCCn1c(=O)c2ccccc2n(Cc2ccc(C)cc2)c1=O,,4.68
O=C(CCSc1nnnn1-c1ccccc1)Nc1cc(C(F)(F)F)ccc1Cl,> 40 µM (inactive),
O=C(Nc1cccc(Cl)c1)c1ncn2c1CNS(=O)(=O)c1ccccc1-2,,4.72
COc1ccc(-n2ccc(=O)c(-c3nc(-c4ccc(F)cc4)no3)n2)cc1,> 40 µM (inactive),
COc1ccc(NC(=O)Cn2cc(C(=O)c3ccc(F)cc3)c(=O)c3cc(C)ccc32)cc1OC,> 40 µM (inactive),
CCOc1ccc(-n2c(SCC(=O)Nc3ccc(C)cc3)nnc2-c2c[nH]c3ccccc23)cc1,,5.05
O=C(/C=C/c1cccc([N+](=O)[O-])c1)N1CCc2ccccc21,> 40 µM (inactive),
O=C(Cn1cnc2cc([N+](=O)[O-])ccc2c1=O)NCc1ccc2c(c1)OCO2,> 40 µM (inactive),
Cc1ccc(NC(=O)Cc2nnc3cc(-c4nc(C)no4)ccn23)cc1,,4.85
COc1ccc(Nc2nnc(Cc3ccc(Cl)cc3)c(=O)[nH]2)cc1,,4.73
O=C(O)c1ccccc1C(=O)Nc1ccc(SC(C(=O)Nc2ccccc2Cl)c2ccccc2)cc1 (stereo unspecified),,4.77
Fc1ccccc1-c1nc2c3cnn(-c4ccccc4)c3ncn2n1,> 40 µM (inactive),
COc1ccccc1NC(=O)c1nc(-c2cn(-c3cccc(F)c3)nn2)no1,,4.68

SMILES,IC50,pIC50
COc1ccc(CCC(=O)Nc2nnc(C3CC(=O)N(c4ccc(C)cc4)C3)s2)cc1 (stereo unspecified),,4.87
O=C(NC1(O)C(=O)c2ccccc2C1=O)c1ccc(-c2csnn2)cc1,,5.02
O=C(Cn1c(=O)c2ccccc2c2ccccc21)Nc1ccc2c(c1)OCO2,,4.46
COc1ccc(-c2nc(SCC(=O)Oc3c(C)cccc3C)n3[nH]c(=O)cc3n2)cc1,,5.01
O=c1c2ccccc2nc(CSc2cccc(Cl)c2Cl)n1-c1ccccc1,> 40 µM (inactive),
Cn1cc(C(=O)NCC2COc3ccccc3O2)c(=O)c2cc(S(=O)(=O)N3CCCCC3)ccc21 (stereo unspecified),> 40 µM (inactive),
COc1cn(-c2ccc(F)cc2)nc1C(=O)Nc1ccc(Cl)cc1Cl,,4.79
CCN(c1ccc(NC(=O)CSc2nnc(-c3ccccc3)n2-c2ccc(OC)c(OC)c2)cc1)C(C)C,> 40 µM (inactive),
CC(=O)Nc1ccc(C(=O)/C=C2\NCCc3cc4c(cc32)OCCCO4)cc1,> 40 µM (inactive),
O=C(Cn1c(-c2nc(-c3cccc(F)c3)no2)cccc1=O)NCc1ccco1,> 40 µM (inactive),
COc1ccc(NC(=O)Cn2cc(C(=O)c3ccccc3)c(=O)c3cc(Cl)ccc32)cc1OC,,4.64
O=c1c(O)c(-c2ccc(O)c(O)c2)oc2cc(O)cc(O)c12,,5.94
O=C(NC1CCCCCC1)c1cccc(S(=O)(=O)Nc2cc(C(F)(F)F)ccc2Cl)c1,,4.68
COc1cccc(CNC(=O)c2nnn(CC(=O)Nc3cc(C)ccc3C)c2N)c1,,4.52
CC(=O)Nc1ccc(NC(=O)c2ccc3c(c2)CC(c2ccccc2)OC3=O)cc1 (stereo unspecified),,4.84
"CC1NC(=O)C(CC(N)=O)NC(=O)C(C(C)O)NC(=O)C(Cc2ccc(O)cc2)NC(=O)C(C(C)C)NC(=O)C(NC(=O)CC(O)CCCCCCCCCCCCN=C(N)N)C(C)OC1=O (stereo unspecified) ({Pentadecanoyl(3ξ-OH,15-Gua)}-TVYTNA; ester 1-C; configuration not given here)",> 40 µM (inactive),
OC1CCCN(c2ncc(-c3cnccn3)c(-c3cccs3)n2)C1 (stereo unspecified),> 40 µM (inactive),
Cc1cccc(COc2ccc(C3SCC(=O)Nc4n[nH]c(C)c43)cc2)c1 (stereo unspecified),> 40 µM (inactive),
